Measured values from ChEMBL document CHEMBL5033993, “Design, Synthesis, and Evaluation of o-(Biphenyl-3-ylmethoxy)nitrophenyl Derivatives as PD-1/PD-L1 Inhibitors with Potent Anticancer Efficacy In Vivo” (J Med Chem, 2021).
Calls of active or inactive are those of the source. No cut-off for these calls is given here.

Key:
Lewis lung carcinoma [1] = experiment: Immunostimulatory activity in mouse lewis lung carcinoma cells allografted in C57BL6 mouse assessed as increase in infiltration of CD8+ cells at 2 to 5 mg/kg, ig for 21 days by Flow cytometric analysis; type: functional, organism-based; conditions: dose 2-5 mg/kg, time 21.0 day
[2] = target: T1, Programmed cell death protein 1/Programmed cell death 1 ligand 1 (Homo sapiens, UniProt Q15116+Q9NZQ7); experiment: Inhibition of human PD-1/PD-L1 interaction assessed as disruption of PD-1/PD-L1 complex incubated for 2 hrs by Tag-1 Eu3+ and anti-Tag2-XL665 based HTRF assay; type: protein-complex assay
T1 sequence (Q15116 whole entry): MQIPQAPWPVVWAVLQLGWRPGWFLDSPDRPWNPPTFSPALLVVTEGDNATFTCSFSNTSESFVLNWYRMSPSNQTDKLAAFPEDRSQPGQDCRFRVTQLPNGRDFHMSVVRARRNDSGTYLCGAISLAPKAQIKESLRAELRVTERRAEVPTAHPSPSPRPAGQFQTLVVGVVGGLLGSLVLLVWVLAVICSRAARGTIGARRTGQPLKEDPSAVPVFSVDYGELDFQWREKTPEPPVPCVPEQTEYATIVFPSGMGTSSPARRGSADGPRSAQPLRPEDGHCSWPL
T1 sequence (Q9NZQ7 whole entry): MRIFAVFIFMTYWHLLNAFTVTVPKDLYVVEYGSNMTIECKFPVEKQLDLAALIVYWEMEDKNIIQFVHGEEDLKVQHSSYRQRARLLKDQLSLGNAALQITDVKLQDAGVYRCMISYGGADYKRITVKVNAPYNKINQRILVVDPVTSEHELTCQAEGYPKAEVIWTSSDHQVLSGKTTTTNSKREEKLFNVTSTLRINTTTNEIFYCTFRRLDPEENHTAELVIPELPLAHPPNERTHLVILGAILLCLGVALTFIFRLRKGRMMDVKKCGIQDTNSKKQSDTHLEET

[3] = target: T1, Programmed cell death protein 1/Programmed cell death 1 ligand 1; experiment: Potency index, ratio of BMS-202 IC50 to test compound IC50 for inhibition of human PD-1/PD-L1 interaction assessed as disruption of PD-1/PD-L1 complex incubated for 2 hrs by Tag-1 Eu3+ and anti-Tag2-XL665 based HTRF assay; type: protein-complex assay
[4] = target: Programmed cell death 1 ligand 1 (Mus musculus) (UniProt Q9EP73); experiment: Binding affinity to PDL1 in mouse lewis lung carcinoma cells assessed as thermal stability at 0.1 to 100 nM at 58 degC after 12 hrs by CESTA analysis; type: tissue-based; conditions: Lewis lung carcinoma cell line, dose 0.1-100 nM
Chain of Programmed cell death 1 ligand 1 (Mus musculus) (Q9EP73 whole entry): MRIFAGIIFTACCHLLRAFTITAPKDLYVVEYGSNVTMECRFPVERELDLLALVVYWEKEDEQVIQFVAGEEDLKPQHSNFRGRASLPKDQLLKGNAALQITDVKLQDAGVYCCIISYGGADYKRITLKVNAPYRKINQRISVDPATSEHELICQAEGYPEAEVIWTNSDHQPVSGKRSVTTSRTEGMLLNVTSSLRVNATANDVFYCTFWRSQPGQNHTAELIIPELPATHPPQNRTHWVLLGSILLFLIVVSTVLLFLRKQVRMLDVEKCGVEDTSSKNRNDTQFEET

[5] = target: Programmed cell death 1 ligand 1 (Mus musculus) (UniProt Q9EP73); experiment: Binding affinity to PDL1 in mouse lewis lung carcinoma cells assessed as thermal stability at 3 nM at 43 to 70 degC after 12 hrs by CESTA analysis; conditions: Lewis lung carcinoma cell line
T-cell [6] = experiment: Upregulation of IFNgamma protein expression in CON-A stimulated C57BL6 mouse lymphnode T cell co-cultured with Lewis lung carcinoma cell line at 0.3 to 30 nM by ELISA; type: functional, tissue-based; conditions: dose 0.3-30 nM
Lewis lung carcinoma [7] = experiment: Immunostimulatory activity in mouse lewis lung carcinoma cells allografted in C57BL6 mouse assessed as increase in infiltration of IFNgamm+/CD4+ cells at 2 to 5 mg/kg, ig for 21 days by Flow cytometric analysis; type: functional, organism-based; conditions: dose 2-5 mg/kg, time 21.0 day
Lewis lung carcinoma [8] = experiment: Immunostimulatory activity in mouse lewis lung carcinoma cells allografted in C57BL6 mouse assessed as increase in infiltration of CD8+/CD45+/CD3+ cells at 2 to 5 mg/kg, ig for 21 days by Flow cytometric analysis; type: functional, organism-based; conditions: dose 2-5 mg/kg, time 21.0 day
PBMC [9] = experiment: Upregulation of IFNgamma protein expression in CD3/CD28/PD-L1 stimulated PBMC (unknown origin) at 0.3 to 30 nM by ELISA; type: functional, tissue-based; conditions: Homo sapiens, dose 0.3-30 nM
PBMC [10] = experiment: Induction of immuno-regulatory activity in CD3/CD28/PD-L1 stimulated PBMC (unknown origin) at 0.3 to 30 nM by Western blot analysis; type: functional, tissue-based; conditions: Homo sapiens, dose 0.3-30 nM
[11] = Cytotoxicity against mouse lewis lung carcinoma cells assessed as reduction in cell viability at 0.3 to 3000 nM and measured after 24 to 72 hrs by MTT assay; type: cell-based; conditions: 3 µM, dose lower 0.3 nM, time lower 24 hrs, dose upper 3000 nM, time upper 72 hrs
T-cell [12] = experiment: Cytotoxicity against C57BL6 mouse lymphnode T cell cells assessed as reduction in cell viability at 3000 nM and measured after 24 to 72 hrs by MTT assay; type: cell-based; conditions: 3 µM, time 24-72 hrs
Lewis lung carcinoma [13] = experiment: Anti-tumor activity against mouse lewis lung carcinoma cells allografted in C57BL6 mouse assessed as reduction in tumor growth at 2 to 5 mg/kg, ig for 21 days; type: functional, organism-based; conditions: dose 2-5 mg/kg, time 21.0 day
[14] = Anti-tumor activity against mouse lewis lung carcinoma cells allografted in C57BL6 mouse assessed as reduction in tumor growth at 5 mg/kg, ig for 21 days relative to control; type: functional; conditions: po, 504 h, time 21 day, read-out: TGI
[15] = Anti-tumor activity against mouse lewis lung carcinoma cells allografted in C57BL6 mouse assessed as reduction in tumor growth at 2 mg/kg, ig for 21 days relative to control; type: functional; conditions: po, 504 h, time 21 day, read-out: TGI
Mus musculus [16] = experiment: Toxicity in C57BL6 mouse allografted with mouse lewis lung carcinoma cells assessed as reduction body weight at 2 mg/kg, ig for 21 days; type: organism-based; conditions: in vivo, po, 504 h, time 21 day
Mus musculus [17] = experiment: Toxicity in C57BL6 mouse allografted with mouse lewis lung carcinoma cells assessed as reduction body weight at 5 mg/kg, ig for 21 days; type: organism-based; conditions: in vivo, po, 504 h, time 21 day
Lewis lung carcinoma [18] = experiment: Anti-tumor activity against mouse lewis lung carcinoma cells allografted in C57BL6 mouse assessed as reduction PCNA protein expression level at 2 to 5 mg/kg, ig for 21 days by immunohistochemistry analysis; type: functional, organism-based; conditions: dose 2-5 mg/kg, time 21.0 day
Lewis lung carcinoma [19] = experiment: Induction of apoptosis in mouse lewis lung carcinoma cells allografted in C57BL6 mouse assessed as Increase in TUNEL positive cells at 2 to 5 mg/kg, ig for 21 days by TUNEL assay; type: functional, organism-based; conditions: dose 2-5 mg/kg, time 21.0 day
Mus musculus [20] = experiment: Upregulation of IFNgamma protein expression in C57BL6 mouse serum allografted with mouse lewis lung carcinoma cells at 2.5 to 5 mg/kg, ig for 21 days by ELISA; type: functional, organism-based; conditions: dose 2.5-5 mg/kg, time 21.0 day
Lewis lung carcinoma [21] = experiment: Immunostimulatory activity in mouse lewis lung carcinoma cells allografted in C57BL6 mouse assessed as increase in infiltration of total immune cells at 2 to 5 mg/kg, ig for 21 days by Flow cytometric analysis; type: functional, organism-based; conditions: dose 2-5 mg/kg, time 21.0 day
Lewis lung carcinoma [22] = experiment: Immunostimulatory activity in mouse lewis lung carcinoma cells allografted in C57BL6 mouse assessed as increase in infiltration of T cells at 2 to 5 mg/kg, ig for 21 days by Flow cytometric analysis; type: functional, organism-based; conditions: dose 2-5 mg/kg, time 21.0 day

Cc1c(COc2cc(OCc3cccc(C#N)c3)c(CN[C@H](C(=O)O)[C@@H](C)O)cc2[N+](=O)[O-])cccc1-c1ccccc1
Activity (Lewis lung carcinoma [1]): Active | IC50 [2]: 2.7 nM | Ratio IC50 [3]: 25 | Activity [4]: Dose-Dependent Effect | Activity [5]: Active | Activity (T-cell [6]): Dose-Dependent Effect | Activity (Lewis lung carcinoma [7]): Active | Activity (Lewis lung carcinoma [8]): Active | Activity (PBMC [9]): Dose-Dependent Effect | Activity (PBMC [10]): Dose-Dependent Effect | Activity [11]: Non-Toxic | Activity (T-cell [12]): Non-Toxic | TGI (Lewis lung carcinoma [13]): Dose-Dependent Effect | inhibition in vivo at 5 mg/kg [14]: 48.5% | inhibition in vivo at 2 mg/kg [15]: 17.3% | Activity (Mus musculus [16]): Non-Toxic | Activity (Mus musculus [17]): Non-Toxic | Activity (Lewis lung carcinoma [18]): Dose-Dependent Effect | Activity (Lewis lung carcinoma [19]): Dose-Dependent Effect | Activity (Mus musculus [20]): Dose-Dependent Effect | Activity (Lewis lung carcinoma [21]): Active | Activity (Lewis lung carcinoma [22]): Active
